In patent US11427553B2, “Dihydrooxadiazinones” (Bayer Aktiengesellschaft, priority 2017, dated 2022):

How the values were obtained:
IGR37 cells = assay: Assay 1 cell proliferation measurement (CTG, 72 h), IGR37; format: cell-based; settings: Homo sapiens, IGR-37, Cell Titer Glo, read-out: IGR37 IC50 [nM] (melanoma)
human full length PDE3B = human full length PDE3B (Homo sapiens (Human), UniProt Q13370); assay: Assay 5 PDE3B enzyme inhibition (3H-cAMP SPA); format: biochemical; settings: Sf9 cell extract
Outline: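 Hydrolysis of tritiated cAMP by Sf9-expressed full-length human PDE3B proceeded 60 min at room temperature in Tris buffer pH 7.5 containing Mg2+, EDTA and BSA, with enzyme dilution keeping substrate consumption below 70%. IC50 derived from percent activity versus log compound concentration.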

SK-MEL-3 cells = assay: Assay 1 cell proliferation measurement (CTG, 72 h), SK-MEL-3; format: cell-based, human; settings: Homo sapiens, SK-MEL3; Assay 1, 72 h, Cell Titer Glo; read-out: SK-MEL-3 IC50 [nM] (melanoma)
Outline: (§1)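 Seed cells, incubate overnight at 37 °C; measure baseline viability (CTG, 0 h plate); dose compound in a 10-step 2.5-fold series (max generally 100 nM final, DMSO 0.3%) for 72 h; read CTG luminescence; fit IC50 with 4 parameters.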

HeLa cells = assay: Assay 1 cell proliferation measurement (CTG, 72 h), HeLa; format: cell-based, human; settings: Homo sapiens, HeLa; Assay 1, 72 h, Cell Titer Glo; read-out: HeLa IC50 [nM] (Cervical cancer)
Outline: as §1

human full length PDE3A = human full length PDE3A (Homo sapiens (Human), UniProt Q14432); assay: Assay 4 PDE3A enzyme inhibition (3H-cAMP SPA); format: biochemical; settings: Sf9 cell extract
Outline: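 In this SPA format, the 60-min room-temperature reaction used 0.025 μCi [8-3H]cAMP and diluted full-length PDE3A from Sf9 cells. Percentage activity was plotted against log compound concentration to derive IC50.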

[1] = Assay 6 in vitro metabolic stability in cryopreserved human hepatocytes (CL, Fmax); format: in vitro ADME; settings: 1 μM test compound; for Clblood: hepatic in vivo blood clearance calculated (well-stirred) from half-life in cryopreserved human hepatocytes; for Fmax: maximal oral bioavailability calculated from half-life in cryopreserved human hepatocytes
Experimental: Assay 6 Method for Human Cryo Hepatocytes:
Investigation of In Vitro Metabolic Stability in Cryopreserved Human Hepatocytes (Including Calculation of Hepatic In Vivo Blood Clearance (CL) and Maximal Oral Bioavailability (Fmax))
Cryopreserved Hepatocytes (e.g. purchased from Celsis InVitroTechnologies) were briefly thawed, washed with 45 mL pre-warmed in in vitro GRO HT medium and centrifuged for 5 min at 50×g. The cell pellet was resuspended in 5 ml of Krebs-Henseleit […] (KHB). Cell viability was determined by trypan blue exclusion.
For the metabolic stability assay liver cells were distributed in WME containing 5% FCS to glass vials at a density of 1.0×10^6 vital cells/ml. The test compound was added to a final concentration of 1 μM. During incubation, the hepatocyte suspensions were continuously shaken at 580 rpm and aliquots were taken at 2, 8, 16, 30, 45 and 90 min, to which equal volumes of cold methanol were immediately added. Samples were frozen at −20° C. over night, after subsequently centrifuged for 15 minutes at 3000 rpm and the supernatant was analyzed with an Agilent 1290 HPLC-system with LCMS/MS detection.
The half-life of a test compound was determined from the concentration-time plot. From the half-life the intrinsic clearances were calculated. Together with the additional parameters liver blood flow, amount of liver cells in vivo and in vitro. The hepatic in vivo blood clearance (CL) and the maximal oral bioavailability (Fmax) was calculated.

human full length PDE3B, sequence (Q13370 whole entry): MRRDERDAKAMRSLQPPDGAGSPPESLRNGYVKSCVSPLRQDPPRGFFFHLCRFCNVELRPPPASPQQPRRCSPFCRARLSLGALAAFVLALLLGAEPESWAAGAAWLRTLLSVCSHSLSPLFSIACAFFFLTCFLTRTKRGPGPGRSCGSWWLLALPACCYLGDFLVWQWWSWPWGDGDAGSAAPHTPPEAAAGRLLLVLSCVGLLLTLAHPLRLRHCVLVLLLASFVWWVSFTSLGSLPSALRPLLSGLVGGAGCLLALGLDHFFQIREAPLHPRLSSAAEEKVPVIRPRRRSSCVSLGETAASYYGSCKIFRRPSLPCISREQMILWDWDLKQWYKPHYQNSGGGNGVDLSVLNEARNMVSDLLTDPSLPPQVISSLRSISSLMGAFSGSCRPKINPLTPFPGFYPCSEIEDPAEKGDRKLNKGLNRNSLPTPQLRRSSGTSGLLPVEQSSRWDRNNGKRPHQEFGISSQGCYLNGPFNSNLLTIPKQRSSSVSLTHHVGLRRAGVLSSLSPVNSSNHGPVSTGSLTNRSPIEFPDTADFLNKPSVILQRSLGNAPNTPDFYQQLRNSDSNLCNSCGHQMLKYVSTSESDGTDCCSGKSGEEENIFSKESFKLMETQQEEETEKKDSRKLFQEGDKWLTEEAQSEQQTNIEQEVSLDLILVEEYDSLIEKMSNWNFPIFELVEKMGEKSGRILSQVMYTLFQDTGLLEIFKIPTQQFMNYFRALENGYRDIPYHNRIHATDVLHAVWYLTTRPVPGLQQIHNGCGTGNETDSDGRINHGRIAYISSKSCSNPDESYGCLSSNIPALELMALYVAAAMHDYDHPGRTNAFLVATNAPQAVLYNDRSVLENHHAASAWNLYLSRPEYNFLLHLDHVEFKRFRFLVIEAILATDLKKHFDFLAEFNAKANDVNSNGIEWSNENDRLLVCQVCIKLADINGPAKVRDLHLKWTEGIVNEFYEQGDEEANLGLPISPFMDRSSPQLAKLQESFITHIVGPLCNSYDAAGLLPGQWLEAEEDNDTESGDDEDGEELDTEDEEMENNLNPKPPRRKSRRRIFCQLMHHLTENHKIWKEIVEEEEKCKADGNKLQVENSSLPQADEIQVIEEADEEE
human full length PDE3A, sequence (Q14432 whole entry): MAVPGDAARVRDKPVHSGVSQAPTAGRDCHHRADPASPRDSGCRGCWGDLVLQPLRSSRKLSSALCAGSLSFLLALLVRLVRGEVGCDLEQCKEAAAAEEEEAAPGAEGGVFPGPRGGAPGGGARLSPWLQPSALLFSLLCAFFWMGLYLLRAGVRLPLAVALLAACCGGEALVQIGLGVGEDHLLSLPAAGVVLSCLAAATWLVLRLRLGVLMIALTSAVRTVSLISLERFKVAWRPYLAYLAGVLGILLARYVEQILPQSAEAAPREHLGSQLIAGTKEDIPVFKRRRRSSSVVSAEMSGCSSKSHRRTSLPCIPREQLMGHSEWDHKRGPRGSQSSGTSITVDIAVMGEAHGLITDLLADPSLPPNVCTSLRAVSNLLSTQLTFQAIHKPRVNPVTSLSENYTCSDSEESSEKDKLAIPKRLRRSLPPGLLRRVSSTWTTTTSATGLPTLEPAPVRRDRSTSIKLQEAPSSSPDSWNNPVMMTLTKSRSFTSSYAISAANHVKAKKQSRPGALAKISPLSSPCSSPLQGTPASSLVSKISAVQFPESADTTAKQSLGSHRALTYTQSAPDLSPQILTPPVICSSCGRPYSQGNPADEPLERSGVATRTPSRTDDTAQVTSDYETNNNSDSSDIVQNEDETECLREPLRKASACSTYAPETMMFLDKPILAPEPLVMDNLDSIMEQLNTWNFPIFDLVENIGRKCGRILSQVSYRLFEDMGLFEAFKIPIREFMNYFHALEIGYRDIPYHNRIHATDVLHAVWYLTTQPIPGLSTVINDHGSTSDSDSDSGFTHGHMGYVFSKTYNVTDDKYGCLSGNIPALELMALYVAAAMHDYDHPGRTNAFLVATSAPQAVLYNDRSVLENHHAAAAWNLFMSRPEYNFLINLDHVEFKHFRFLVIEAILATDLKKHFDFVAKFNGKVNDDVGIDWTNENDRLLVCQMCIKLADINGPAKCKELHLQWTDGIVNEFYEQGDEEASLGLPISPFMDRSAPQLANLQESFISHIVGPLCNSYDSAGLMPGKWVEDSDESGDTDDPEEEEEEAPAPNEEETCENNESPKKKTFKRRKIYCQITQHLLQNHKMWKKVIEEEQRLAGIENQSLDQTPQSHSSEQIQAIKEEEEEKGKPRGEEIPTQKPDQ

| Compound | IC50 (human full length PDE3B) | IC50 (SK-MEL-3 cells) | IC50 (HeLa cells) | IC50 (human full length PDE3A) | Clblood [1] | Fmax [1] | IC50 (IGR37 cells) |
| --- | --- | --- | --- | --- | --- | --- | --- |
| N#CC1CCN(c2ccc(C3=NNC(=O)OC3)cc2C(F)(F)F)CC1 [Example 239, 1-[4-(2-Oxo-3,6-dihydro-2H-1,3,4-oxadiazin-5-yl)-2-(trifluoromethyl)phenyl]piperidine-4-carbonitrile] | 26 nM | 1 nM | 0.3 nM | 27 nM | – | – | 1 nM |
| CC1OC(=O)NN=C1c1ccc(N2CCOCC2)c(C(F)(F)F)c1 (racemic) [Example 126, (rac)-6-Methyl-5-(4-morpholino-3-(trifluoromethyl)phenyl)-3,6-dihydro-2H-1,3,4-oxadiazin-2-one] | 8 nM | 1 nM | 1 nM | 12 nM | – | – | 2 nM |
| CNc1ccc(C2=NNC(=O)OC2)cc1C(F)(F)F [Example 276, 5-[4-(Methylamino)-3-(trifluoromethyl)phenyl]-3,6-dihydro-2H-1,3,4-oxadiazin-2-one] | 240 nM | 49 nM | 27 nM | 79 nM | – | – | 50 nM |
| O=C1NN=C(c2ccc(N3CCC(F)(F)CC3)c(C(F)(F)F)c2)CO1 [Example 232, 5-[4-(4,4-Difluoropiperidin-1-yl)-3-(trifluoromethyl)phenyl]-3,6-dihydro-2H-1,3,4-oxadiazin-2-one] | – | 5 nM | 2 nM | – | – | – | 4 nM |
| CC1OC(=O)NN=C1c1ccc(-c2ccc(F)cc2)c(C(F)(F)F)c1 (racemic) [Example 192, (rac)-5-[4′-Fluoro-2-(trifluoromethyl)[1,1′-biphenyl]-4-yl]-6-methyl-3,6-dihydro-2H-1,3,4-oxadiazin-2-one] | 120 nM | 6 nM | 2 nM | 320 nM | – | – | 7 nM |
| C[C@@H]1OC(=O)NN=C1c1ccc(CN2CCOCC2)c(C(F)(F)F)c1 [Example 196, (6S)-6-Methyl-5-{4-[(morpholin-4-yl)methyl]-3-(trifluoromethyl)phenyl}-3,6-dihydro-2H-1,3,4-oxadiazin-2-one] | 790 nM | 31 nM | 15 nM | 810 nM | – | – | 33 nM |
| O=C1NN=C(c2ccc(NCc3cnccn3)c(C(F)(F)F)c2)CO1 [Example 226, 5-[4-{[(Pyrazin-2-yl)methyl]amino}-3-(trifluoromethyl)phenyl]-3,6-dihydro-2H-1,3,4-oxadiazin-2-one] | 187 nM | 2 nM | 1 nM | 128 nM | – | – | 2 nM |
| C[C@@H]1OC(=O)NN=C1c1ccc(N2CC(F)(F)C2)c(C(F)(F)F)c1 [Example 279, (6S)-5-[4-(3,3-Difluoroazetidin-1-yl)-3-(trifluoromethyl)phenyl]-6-methyl-3,6-dihydro-2H-1,3,4-oxadiazin-2-one] | – | 2 nM | 1 nM | – | – | – | 2 nM |
| CC1OC(=O)NN=C1c1ccc(-c2cnn(C(F)F)c2)c(C(F)(F)F)c1 (racemic) [Example 191, (rac)-5-{4-[1-(Difluoromethyl)-1H-pyrazol-4-yl]-3-(trifluoromethyl)phenyl}-6-methyl-3,6-dihydro-2H-1,3,4-oxadiazin-2-one] | 57 nM | 1 nM | 0.4 nM | 48 nM | – | – | 1 nM |
| C[C@@H]1OC(=O)NN=C1c1ccc(-c2ccncc2)c(C(F)(F)F)c1 [Example 166, (6S)-6-Methyl-5-[4-(pyridin-4-yl)-3-(trifluoromethyl)phenyl]-3,6-dihydro-2H-1,3,4-oxadiazin-2-one] | 42 nM | 1 nM | 1 nM | 69 nM | – | – | 1 nM |

Continued, in another order:

| IC50 (human full length PDE3B) | IC50 (SK-MEL-3 cells) | IC50 (HeLa cells) | IC50 (human full length PDE3A) | Clblood [1] | Fmax [1] | Compound | IC50 (IGR37 cells) |
| --- | --- | --- | --- | --- | --- | --- | --- |
| 97 nM | 5 nM | 2 nM | 61 nM | – | – | CC1(C#N)CN(c2ccc(C3=NNC(=O)OC3)cc2C(F)(F)F)C1 [Example 251, 3-Methyl-1-[4-(2-oxo-3,6-dihydro-2H-1,3,4-oxadiazin-5-yl)-2-(trifluoromethyl)phenyl]azetidine-3-carbonitrile] | 4 nM |
| – | 0.4 nM | 0.1 nM | – | – | – | C[C@@H]1OC(=O)NN=C1c1ccc(N2CC(C)(O)C2)c(C(F)(F)F)c1 [Example 280, (6S)-5-[4-(3-Hydroxy-3-methylazetidin-1-yl)-3-(trifluoromethyl)phenyl]-6-methyl-3,6-dihydro-2H-1,3,4-oxadiazin-2-one] | 0.4 nM |
| 930 nM | 35 nM | 19 nM | > 1000 nM | – | – | C[C@@H]1OC(=O)NN=C1c1ccc(-n2cnc(C(F)(F)F)c2)c(C(F)(F)F)c1 [Example 266, (6S)-6-Methyl-5-{3-(trifluoromethyl)-4-[4-(trifluoromethyl)-1H-imidazol-1-yl]phenyl}-3,6-dihydro-2H-1,3,4-oxadiazin-2-one] | 65 nM |
| 155 nM | 40 nM | 1 nM | 190 nM | – | – | CCC1(O)CCN(c2ccc(C3=NNC(=O)OC3)cc2C(F)(F)F)CC1 [Example 253, 5-[4-(4-Ethyl-4-hydroxypiperidin-1-yl)-3-(trifluoromethyl)phenyl]-3,6-dihydro-2H-1,3,4-oxadiazin-2-one] | 5 nM |
| 16 nM | 1 nM | 1 nM | 27 nM | – | – | C[C@@H]1OC(=O)NN=C1c1ccc(-c2ccc(O)cc2)c(C(F)(F)F)c1 [Example 174, (6S)-5-[4′-Hydroxy-2-(trifluoromethyl)[1,1′-biphenyl]-4-yl]-6-methyl-3,6-dihydro-2H-1,3,4-oxadiazin-2-one] | 1 nM |
| 170 nM | 3 nM | 1 nM | 48 nM | 14.3 mL/min/kg | 35% | CCOCCNc1ccc(C2=NNC(=O)OC2)cc1C(F)(F)F [Example 260, 5-{4-[(2-Ethoxyethyl)amino]-3-(trifluoromethyl)phenyl}-3,6-dihydro-2H-1,3,4-oxadiazin-2-one] | – |
| 77 nM | 5 nM | 2 nM | 58 nM | <0.17 mL/min/kg | 100% | O=C1NN=C(c2ccc(-c3cnn(C(F)F)c3)c(C(F)F)c2)CO1 [Example 195, 5-{3-(Difluoromethyl)-4-[1-(difluoromethyl)-1H-pyrazol-4-yl]phenyl}-3,6-dihydro-2H-1,3,4-oxadiazin-2-one] | – |
| 170 nM | 15 nM | 9 nM | 55 nM | <0.17 mL/min/kg | 100% | CC(C)c1ccc(C2=NNC(=O)OC2)cc1C(F)(F)F [Example 270, 5-[4-(Propan-2-yl)-3-(trifluoromethyl)phenyl]-3,6-dihydro-2H-1,3,4-oxadiazin-2-one] | – |
| 110 nM | 3 nM | 1 nM | 138 nM | 5 mL/min/kg | 78% | CC(C)Cc1ccc(C2=NNC(=O)OC2)cc1C(F)(F)F [Example 268, 5-[4-(2-Methylpropyl)-3-(trifluoromethyl)phenyl]-3,6-dihydro-2H-1,3,4-oxadiazin-2-one] | – |
| 130 nM | 14 nM | 6 nM | 170 nM | 7.33 mL/min/kg | 67% | O=C1NN=C(c2ccc(-c3ccc(F)cc3)c(C(F)F)c2)CO1 [Example 198, 5-[2-(Difluoromethyl)-4′-fluoro[1,1′-biphenyl]-4-yl]-3,6-dihydro-2H-1,3,4-oxadiazin-2-one] | – |
| > 1000 nM | 38 nM | 20 nM | > 1000 nM | 3.17 mL/min/kg | 86% | O=C1NN=C(c2ccc(-c3ccc(Cl)cc3)c(OC(F)(F)F)c2)CO1 [Example 71, 5-[4′-Chloro-2-(trifluoromethoxy)biphenyl-4-yl]-3,6-dihydro-2H-1,3,4-oxadiazin-2-one] | – |
